# In US11186576B2, “Pyrazolo[1,5-A][1,3,5]triazine and pyrazolo[1,5-A]pyrimidine derivatives as CDK inhibitors” (Aurigene Discovery Technologies Limited, priority 2015, dated 2021):
# Molecular target: CDK7/CycH/MNAT1 (Homo sapiens (Human), UniProt P50613)
# Assay: Biochemical assay for CDK7 (TR-FRET kinase assay)
# Conditions: 60 min pre-incubation, 1 mM ATP; for inhibition at 10 µM: 10 μM compound, read-out: % inhibition @ 10 μM; for IC50: read-out: IC50
# Description: The ability of compounds to inhibit CDK7 kinase activity was tested in a TR-FRET assay using 5 nM of CDK7/CycH/MNAT1 obtained from Invitrogen, USA. Test compounds were pre-incubated with the kinase at room temperature for 60 min. After incubation, substrate mix [100 nM Ultra-light MBP (Perkin Elmer, USA) and 1 mM ATP (Sigma)] was added. The above reaction was stopped by the addition of 40 mM EDTA after 60 minutes of kinase reaction. 1 nM Eu-labelled antiphospho-MBP antibody [Perkin Elmer, USA] was added, mixed well and the fluorescence emission at 615 nm and 665 nm [excitation at 340 nm] was measured. The final DMSO concentration in the assay was 1%. For IC50 determination, appropriate concentrations were made by ⅓^rd serial dilutions of 10 mM DMSO stock solution of test compound. All the fluorescence measurements were made in a Victor 3 Multilabel Counter [Perkin Elmer, USA]. The IC50 was determined by fitting the dose response data to sigmoidal curve fitting equation using GraphPad Prism software V5. To identify compounds that inhibit CDK7 irreversibly, time depended inhibition studies were carried by pre-incubating compound with the enzyme at three time points (20, 60 and 180 min) and carrying out assay as described above.
# Sequence of CDK7/CycH/MNAT1 (P50613 whole entry): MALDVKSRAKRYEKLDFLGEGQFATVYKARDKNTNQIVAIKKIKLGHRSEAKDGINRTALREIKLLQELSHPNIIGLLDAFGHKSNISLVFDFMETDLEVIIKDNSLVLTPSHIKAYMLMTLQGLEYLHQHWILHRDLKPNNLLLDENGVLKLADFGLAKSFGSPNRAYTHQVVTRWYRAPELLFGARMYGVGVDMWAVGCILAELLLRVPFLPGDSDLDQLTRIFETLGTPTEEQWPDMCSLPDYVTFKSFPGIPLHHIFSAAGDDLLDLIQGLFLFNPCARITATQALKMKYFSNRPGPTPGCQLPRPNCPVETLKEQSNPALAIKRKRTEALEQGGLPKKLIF
# Sequence of CDK7/CycH/MNAT1 (P51946 whole entry partner): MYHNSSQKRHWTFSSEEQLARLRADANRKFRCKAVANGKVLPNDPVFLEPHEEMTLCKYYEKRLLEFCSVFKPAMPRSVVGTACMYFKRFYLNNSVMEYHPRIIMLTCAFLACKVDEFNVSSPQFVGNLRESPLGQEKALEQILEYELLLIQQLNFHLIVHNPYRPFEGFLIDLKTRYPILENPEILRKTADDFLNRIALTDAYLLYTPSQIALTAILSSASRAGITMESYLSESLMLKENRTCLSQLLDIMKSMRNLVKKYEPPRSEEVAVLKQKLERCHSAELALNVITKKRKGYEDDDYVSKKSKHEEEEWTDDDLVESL
# Sequence of CDK7/CycH/MNAT1 (P51948 whole entry partner): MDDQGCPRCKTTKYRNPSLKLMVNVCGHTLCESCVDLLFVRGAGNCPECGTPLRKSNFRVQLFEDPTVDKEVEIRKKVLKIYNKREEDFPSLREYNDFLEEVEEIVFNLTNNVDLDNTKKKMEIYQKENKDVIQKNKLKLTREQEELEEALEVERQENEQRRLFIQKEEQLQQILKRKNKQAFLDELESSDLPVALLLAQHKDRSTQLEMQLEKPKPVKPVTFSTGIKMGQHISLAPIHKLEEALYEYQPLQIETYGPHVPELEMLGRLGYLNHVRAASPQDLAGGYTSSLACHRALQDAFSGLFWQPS
Structure (SMILES),inhibition at 10 µM [%],IC50 [nM]
"C=CC(=O)N1CCCCC1C(=O)Nc1cc(F)cc(CNc2nc(NC3CCOCC3)nc3c(C(C)C)cnn23)c1 (stereo not shown) [Compound 36, 1-acryloyl-N-(3-fluoro-5-(((8-isopropyl-2-((tetrahydro-2H-pyran-4-yl)amino)pyrazolo[1,5-a][1,3,5]triazin-4-yl)amino)methyl)phenyl)piperidine-2-carboxamide]",91,300 to 1000
"C=CC(=O)N[C@H]1CC[C@@H](C(=O)Nc2ccc(F)c(CNc3nc(NC4CCOCC4)nc4c(C(C)C)cnn34)c2)CC1 [Compound 39, (1,4-cis)-4-acrylamido-N-(4-fluoro-3-(((8-isopropyl-2-((tetrahydro-2H-pyran-4-yl)amino)pyrazolo[1,5-a][1,3,5]triazin-4-yl)amino)methyl)phenyl)cyclohexane-1-carboxamide]",76,> 1000
"C=CC(=O)N1CCCCC1C(=O)Nc1cccc(CNc2nc(N[C@H]3CCCOC3)nc3c(C(C)C)cnn23)c1 (stereo partly drawn) [Compound 40D, 1-acryloyl-N-(3-(((8-isopropyl-2-(((S)-tetrahydro-2H-pyran-3-yl)amino)pyrazolo[1,5-a][1,3,5]triazin-4-yl)amino)methyl)phenyl)piperidine-2-carboxamide]",–,300 to 1000
"C=CC(=O)N1CCC[C@H](NC(=O)c2cccc(CNc3nc(NC4CCOCC4)nc4c(C(C)C)cnn34)c2)C1 [Compound 41, (S)—N-(1-acryloylpiperidin-3-yl)-3-(((8-isopropyl-2-((tetrahydro-2H-pyran-4-yl)amino)pyrazolo[1,5-a][1,3,5]triazin-4-yl)amino)methyl)benzamide]",92,300 to 1000
"C=CC(=O)N1CCC(C(=O)Nc2cc(CNc3nc(NC4CCOCC4)nc4c(C(C)C)cnn34)ccc2F)C1 (stereo not shown) [Compound 43, 1-acryloyl-N-(2-fluoro-5-(((8-isopropyl-2-((tetrahydro-2H-pyran-4-yl)amino)pyrazolo[1,5-a][1,3,5]triazin-4-yl)amino)methyl)phenyl)pyrrolidine-3-carboxamide]",79,300 to 1000
"C=CC(=O)N1CCCC(C(=O)Nc2cccc(C(C)Nc3nc(NC4CCOCC4)nc4c(C(C)C)cnn34)c2)C1 (stereo not shown) [Compound 45, 1-acryloyl-N-(3-(1-((8-isopropyl-2-((tetrahydro-2H-pyran-4-yl)amino)pyrazolo[1,5-a][1,3,5]triazin-4-yl)amino)ethyl)phenyl)piperidine-3-carboxamide]",73,> 1000
"C=CC(=O)N1CCN(C(=O)Oc2cccc(CNc3nc(NC4CCOCC4)nc4c(C(C)C)cnn34)c2)CC1 [Compound 46, 3-(((8-isopropyl-2-((tetrahydro-2H-pyran-4-yl)amino)pyrazolo[1,5-a][1,3,5]triazin-4-yl)amino)methyl)phenyl 4-acryloylpiperazine-1-carboxylate]",98,< 300
"C=CC(=O)Nc1cccc(C(=O)Nc2cccc(CNc3nc(NC4CCOCC4)nc4c(C(C)C)cnn34)c2)c1C [Compound 48A, 3-acrylamido-N-(3-(((8-isopropyl-2-((tetrahydro-2H-pyran-4-yl)amino)pyrazolo[1,5-a][1,3,5]triazin-4-yl)amino)methyl)phenyl)-2-methylbenzamide]",–,< 300
"CC(C)c1cnn2c(NCc3cccc(NC/C=C/C(=O)N(C)C)c3)nc(NC3CCOCC3)nc12 [Compound 49, (E)-4-((3-(((8-isopropyl-2-((tetrahydro-2H-pyran-4-yl)amino)pyrazolo[1,5-a][1,3,5]triazin-4-yl)amino)methyl)phenyl)amino)-N,N-dimethylbut-2-enamide]",84,> 1000
"CCN(CC)C/C=C/C(=O)Nc1cccc(CNc2nc(NC3CCOCC3)nc3c(C(C)C)cnn23)c1 [Compound 50, (E)-4-(diethylamino)-N-(3-(((8-isopropyl-2-((tetrahydro-2H-pyran-4-yl)amino)pyrazolo[1,5-a][1,3,5]triazin-4-yl)amino)methyl)phenyl)but-2-enamide]",97,< 300
"CC(C)c1cnn2c(NCc3cccc(NC(=O)/C=C/CN4CCOCC4)c3)nc(NC3CCOCC3)nc12 [Compound 51, (E)-N-(3-(((8-isopropyl-2-((tetrahydro-2H-pyran-4-yl)amino)pyrazolo[1,5-a][1,3,5]triazin-4-yl)amino)methyl)phenyl)-4-morpholinobut-2-enamide]",91,300 to 1000
"CCN1CCN(C/C=C/C(=O)Nc2cccc(CNc3nc(NC4CCOCC4)nc4c(C(C)C)cnn34)c2)CC1 [Compound 52, (E)-4-(4-ethylpiperazin-1-yl)-N-(3-(((8-isopropyl-2-((tetrahydro-2H-pyran-4-yl)amino)pyrazolo[1,5-a][1,3,5]triazin-4-yl)amino)methyl)phenyl)but-2-enamide]",96,–
"CC(C)c1cnn2c(NCc3cccc(NC(=O)/C=C/CN(C)C)c3)nc(NC3CCOCC3)nc12 [Compound 53, (E)-4-(dimethylamino)-N-(3-(((8-isopropyl-2-((tetrahydro-2H-pyran-4-yl)amino)pyrazolo[1,5-a][1,3,5]triazin-4-yl)amino)methyl)phenyl)but-2-enamide]",99,< 300
"CC(C)c1cnn2c(NCc3cccc(NC(=O)/C=C/CN4CCCC4)c3)nc(NC3CCOCC3)nc12 [Compound 54, (E)-N-(3-(((8-isopropyl-2-((tetrahydro-2H-pyran-4-yl)amino)pyrazolo[1,5-a][1,3,5]triazin-4-yl)amino)methyl)phenyl)-4-(pyrrolidin-1-yl)but-2-enamide]",98,< 300
"CC(C)c1cnn2c(NCc3cccc(NC(=O)/C=C/CN4CCCCC4)c3)nc(NC3CCOCC3)nc12 [Compound 55, (E)-N-(3-(((8-isopropyl-2-((tetrahydro-2H-pyran-4-yl)amino)pyrazolo[1,5-a][1,3,5]triazin-4-yl)amino)methyl)phenyl)-4-(piperidin-1-yl)but-2-enamide]",99,< 300

# The next lines start with the values.
inhibition at 10 µM [%],IC50 [nM],Structure (SMILES)
91,< 300,"C=CC(=O)N1CCCCC1C(=O)Nc1ccc(F)c(CNc2nc(NC3CCOCC3)nc3c(C(C)C)cnn23)c1 (stereo not shown) [Compound 37, 1-acryloyl-N-(4-fluoro-3-(((8-isopropyl-2-((tetrahydro-2H-pyran-4-yl)amino)pyrazolo[1,5-a][1,3,5]triazin-4-yl)amino)methyl)phenyl)piperidine-2-carboxamide]"
99,< 300,"C=CC(=O)N1CCOCC1C(=O)Nc1cncc(CNc2nc(NC3CCOCC3)nc3c(C(C)C)cnn23)c1 (stereo not shown) [Compound 40, 4-acryloyl-N-(5-(((8-isopropyl-2-((tetrahydro-2H-pyran-4-yl)amino)pyrazolo[1,5-a][1,3,5]triazin-4-yl)amino)methyl)pyridin-3-yl)morpholine-3-carboxamide]"
–,< 300,"C=CC(=O)Nc1cc(C(=O)Nc2cccc(CNc3nc(NC4CCOCC4)nc4c(C(C)C)cnn34)c2)ccc1C [Compound 40A, 3-acrylamido-N-(3-(((8-isopropyl-2-((tetrahydro-2H-pyran-4-yl)amino)pyrazolo[1,5-a][1,3,5]triazin-4-yl)amino)methyl)phenyl)-4-methylbenzamide]"
–,< 300,"C=CC(=O)Nc1ccc(C)c(C(=O)Nc2cccc(CNc3nc(NC4CCOCC4)nc4c(C(C)C)cnn34)c2)c1 [Compound 40B, 5-acrylamido-N-(3-(((8-isopropyl-2-((tetrahydro-2H-pyran-4-yl)amino)pyrazolo[1,5-a][1,3,5]triazin-4-yl)amino)methyl)phenyl)-2-methylbenzamide]"
–,< 300,"C=CC(=O)N1C(C)CCCC1C(=O)Nc1cccc(CNc2nc(NC3CCOCC3)nc3c(C(C)C)cnn23)c1 (stereo not shown) [Compound 40C, 1-acryloyl-N-(3-(((8-isopropyl-2-((tetrahydro-2H-pyran-4-yl)amino)pyrazolo[1,5-a][1,3,5]triazin-4-yl)amino)methyl)phenyl)-6-methylpiperidine-2-carboxamide]"
94,< 300,"C=CC(=O)N1CCCCC1C(=O)Nc1cc(CNc2nc(NC3CCOCC3)nc3c(C(C)C)cnn23)ccc1F (stereo not shown) [Compound 44, 1-acryloyl-N-(2-fluoro-5-(((8-isopropyl-2-((tetrahydro-2H-pyran-4-yl)amino)pyrazolo[1,5-a][1,3,5]triazin-4-yl)amino)methyl)phenyl)piperidine-2-carboxamide]"
100,< 300,"C=CC(=O)Nc1cccc(C(=O)Nc2cccc(CNc3nc(NC4CCOCC4)nc4c(C(C)C)cnn34)c2)c1 [Compound 47, 3-acrylamido-N-(3-(((8-isopropyl-2-((tetrahydro-2H-pyran-4-yl)amino)pyrazolo[1,5-a][1,3,5]triazin-4-yl)amino)methyl)phenyl)benzamide]"
98,< 300,"C=CC(=O)Nc1ccccc1C(=O)Nc1cccc(CNc2nc(NC3CCOCC3)nc3c(C(C)C)cnn23)c1 [Compound 48, 2-acrylamido-N-(3-(((8-isopropyl-2-((tetrahydro-2H-pyran-4-yl)amino)pyrazolo[1,5-a][1,3,5]triazin-4-yl)amino)methyl)phenyl)benzamide]"
